{"source": "patent US11376337B2", "about": "“Expression of neuropeptides” (California Institute of Technology, priority 2017, dated 2022)", "key": {"[1]": {"biological_target": "T1, Nk3R (Mus musculus, UniProt P47937)", "T1 sequence (P47937 1-452)": "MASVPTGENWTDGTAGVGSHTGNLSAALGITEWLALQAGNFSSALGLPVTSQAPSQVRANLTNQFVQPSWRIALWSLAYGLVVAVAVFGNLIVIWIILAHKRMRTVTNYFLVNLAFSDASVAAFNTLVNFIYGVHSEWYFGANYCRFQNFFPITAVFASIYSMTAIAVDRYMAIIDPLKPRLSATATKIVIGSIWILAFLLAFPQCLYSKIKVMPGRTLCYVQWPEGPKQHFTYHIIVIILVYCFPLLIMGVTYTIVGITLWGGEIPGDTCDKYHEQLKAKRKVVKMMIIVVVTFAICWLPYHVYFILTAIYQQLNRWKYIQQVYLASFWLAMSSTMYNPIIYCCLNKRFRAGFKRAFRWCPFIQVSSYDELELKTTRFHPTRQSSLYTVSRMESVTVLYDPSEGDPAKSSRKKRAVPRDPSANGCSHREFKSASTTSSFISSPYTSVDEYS", "experiment": "Resident intruder assay (aggression), osanetant", "details": "for SIS-induced aggression: osanetant microinfusion into DMH"}, "[2]": {"biological_target": "T1, Nk3R", "experiment": "Acoustic startle response, osanetant", "details": "SIS mice; acute systemic osanetant"}, "[3]": {"biological_target": "T1, Nk3R", "experiment": "Social interaction assay, osanetant", "details": "SIS mice; acute systemic osanetant"}, "[4]": {"biological_target": "T1, Nk3R", "experiment": "Tail rattles during looming disk assay, osanetant", "details": "SIS mice; acute systemic osanetant"}, "[5]": {"biological_target": "T1, Nk3R", "experiment": "Return to housing with pre-isolation cagemates after SIS, osanetant", "type": "in vivo, mice", "parameters": "endogenous in cells; host or cells: living mice (wild-type C57Bl6/N males, Charles River); systemic i.p. dosing or microinfusion into dBNSTa, DMH, CeA", "details": "osanetant during SIS; data not shown"}, "[6]": {"details": "literature statement; cited from earlier work"}, "[7]": {"biological_target": "T1, Nk3R", "experiment": "Tone fear conditioning test (freezing), osanetant", "type": "in vivo, mice", "parameters": "endogenous in cells; host or cells: living mice (wild-type C57Bl6/N males, Charles River); systemic i.p. dosing or microinfusion into dBNSTa, DMH, CeA", "details": "for acute (and thereby persistent) freezing to conditioned threatening stimulus (tone): osanetant injection into CeA; for SIS-induced persistent freezing to conditioned tone: osanetant microinfusion into dBNSTa, 375 ng per site, 20 min before test"}, "[8]": {"biological_target": "T1, Nk3R", "experiment": "Looming disk assay (freezing), osanetant", "details": "for acute (and thereby persistent) freezing to innate threatening stimulus (looming disk): osanetant injection into CeA"}, "[9]": {"biological_target": "T1, Nk3R", "experiment": "Shock reactivity (footshock), osanetant", "type": "in vivo, mice", "parameters": "endogenous in cells; host or cells: living mice (wild-type C57Bl6/N males, Charles River); systemic i.p. dosing or microinfusion into dBNSTa, DMH, CeA"}, "[10]": {"biological_target": "T2, Nk3R (Homo sapiens, UniProt P29371)", "T2 sequence (P29371 1-465)": "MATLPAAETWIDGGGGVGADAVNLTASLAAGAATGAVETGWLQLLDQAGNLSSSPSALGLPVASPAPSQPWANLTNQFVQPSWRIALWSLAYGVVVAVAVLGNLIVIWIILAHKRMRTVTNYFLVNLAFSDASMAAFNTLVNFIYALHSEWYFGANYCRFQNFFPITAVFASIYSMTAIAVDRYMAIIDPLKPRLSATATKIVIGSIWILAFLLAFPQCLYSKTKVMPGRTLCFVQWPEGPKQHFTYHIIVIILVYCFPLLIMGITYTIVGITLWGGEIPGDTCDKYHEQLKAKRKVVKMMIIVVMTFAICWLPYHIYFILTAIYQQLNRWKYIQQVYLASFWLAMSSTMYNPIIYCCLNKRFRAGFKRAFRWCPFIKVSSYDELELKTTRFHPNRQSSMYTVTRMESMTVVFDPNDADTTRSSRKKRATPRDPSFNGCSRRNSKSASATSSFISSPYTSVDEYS", "details": "trials for schizophrenia, bipolar and panic disorder; cited from earlier work"}, "[11]": {"details": "SIS mice, osanetant 5 mg/kg i.p. 20 min prior to assay"}, "[12]": {"details": "SIS mice, osanetant injection into CeA"}, "[13]": {"details": "SIS mice, osanetant microinfusion into dBNSTa"}, "[14]": {"details": "osanetant daily during two-week SIS, tested off-drug"}, "[15]": {"details": "SIS mice, osanetant microinfusion into DMH"}, "[16]": {"details": "osanetant 5 mg/kg i.p. 20 min prior to assay, during stimulus"}}, "note": "Entries after “also recorded” stand apart in the source; their conditions may differ."}
{"molecule": "CC(=O)N(C)C1(c2ccccc2)CCN(CCC[C@]2(c3ccc(Cl)c(Cl)c3)CCCN(C(=O)c3ccccc3)C2)CC1", "note": "[osanetant]", "values": [{"measurement": "aggression promoted by sexual experience", "setting": "[1]; 2 weeks co-habitation with a female, no isolation, systemic osanetant", "value": "had no effect"}, {"measurement": "SIS-enhanced aggression", "setting": "[1]; [11]", "value": "blocked; also recorded: strongly reduced"}, {"measurement": "aggression", "setting": "[1]; [12]", "value": "unaffected"}, {"measurement": "SIS-induced aggression", "setting": "[1]; SIS mice", "value": "abolished"}, {"measurement": "SIS-induced aggression", "setting": "[1]; SIS mice, listed as Osanetant", "value": "selectively blocked"}, {"measurement": "aggression", "setting": "[1]; [13]", "value": "no effect"}, {"measurement": "SIS-enhanced aggression", "setting": "[1]; [14]", "value": "prevented"}, {"measurement": "SIS-enhanced responding in acoustic startle assay", "setting": "[2]", "value": "blocked; also recorded: attenuated"}, {"measurement": "SIS-induced decreased social interaction (time in social zone)", "setting": "[3]", "value": "blocked; also recorded: attenuated"}, {"measurement": "SIS-induced increased tail rattling", "setting": "[4]", "value": "blocked; also recorded: attenuated"}, {"measurement": "fighting after return to housing with pre-isolation cagemates", "setting": "[5]", "value": "without any subsequent fighting observed"}, {"measurement": "crossing of the blood-brain barrier", "setting": "[6]", "value": "crosses the blood-brain barrier"}, {"measurement": "SIS-induced persistent (post) freezing to fear-conditioned tone", "setting": "[7]; [11]", "value": "blocked; also recorded: attenuated"}, {"measurement": "acute (and thereby persistent) freezing to conditioned threatening stimulus (tone)", "setting": "[7]; SIS mice", "value": "reduced"}, {"measurement": "acute (and thereby persistent) freezing to conditioned threatening stimulus (tone)", "setting": "[7]; SIS mice, listed as Osanetant", "value": "selectively blocked"}, {"measurement": "persistent responses to conditioned tone", "setting": "[7]; [15]", "value": "had no effect"}, {"measurement": "SIS-induced persistent freezing to conditioned tone", "setting": "[7]; SIS mice", "value": "selectively inhibited"}, {"measurement": "SIS-induced persistent freezing to conditioned tone", "setting": "[7]; SIS mice, listed as Osanetant", "value": "selectively blocked"}, {"measurement": "freezing during presentation of fear-conditioned tone", "setting": "[7]; [16]", "value": "no significant differences"}, {"measurement": "persistent freezing to fear conditioned tone", "setting": "[7]; [14]", "value": "prevented"}, {"measurement": "SIS-induced persistent (post) freezing to looming disk", "setting": "[8]; [11]", "value": "blocked; also recorded: attenuated"}, {"measurement": "acute (and thereby persistent) freezing to innate threatening stimulus (looming disk)", "setting": "[8]; SIS mice", "value": "reduced"}, {"measurement": "acute (and thereby persistent) freezing to innate threatening stimulus (looming disk)", "setting": "[8]; SIS mice, listed as Osanetant", "value": "selectively blocked"}, {"measurement": "SIS-induced persistent freezing to looming disk", "setting": "[8]; SIS mice, osanetant microinfusion into ACC", "value": "failed to yield significant effects; also recorded: No significant effects"}, {"measurement": "persistent responses to looming stimulus", "setting": "[8]; [15]", "value": "had no effect"}, {"measurement": "SIS-induced persistent freezing to looming disk", "setting": "[8]; SIS mice, osanetant microinfusion into dBNSTa, 375 ng per site, 20 min before test", "value": "selectively inhibited"}, {"measurement": "SIS-induced persistent freezing to looming disk", "setting": "[8]; SIS mice, osanetant microinfusion into dBNSTa, 375 ng per site, 20 min before test, listed as Osanetant", "value": "selectively blocked"}, {"measurement": "SIS-induced persistent freezing to looming disk", "setting": "[8]; SIS mice, osanetant microinfusion into striatum", "value": "failed to yield significant effects; also recorded: No significant effects"}, {"measurement": "freezing during presentation of looming disk", "setting": "[8]; [16]", "value": "no significant differences"}, {"measurement": "persistent freezing to looming disk", "setting": "[8]; [14]", "value": "prevented"}, {"measurement": "SIS-induced increased shock reactivity", "setting": "[9]; [11]", "value": "blocked"}, {"measurement": "reactivity to footshock (SIS-enhanced)", "setting": "[9]; [12]", "value": "reduced; also recorded: blocked"}, {"measurement": "responses to footshock", "setting": "[9]; [15]", "value": "had no effect"}, {"measurement": "shock reactivity", "setting": "[9]; [13]", "value": "no effect"}, {"measurement": "SIS-induced increase in shock reactivity", "setting": "[9]; [14]", "value": "a trend to protection; also recorded: reduced, but not significantly"}, {"measurement": "efficacy in clinical trials", "setting": "[10]", "value": "lack of efficacy"}, {"measurement": "tolerability in clinical trials", "setting": "[10]", "value": "well tolerated"}]}
